Among the test systems are A549 NSCLC; LOX IMVI melanoma; HCC-2998 colon; CCRF-CEM leukemia; MCF7 breast; NCI-H226 lung; TK-10 renal; OVCAR-4 ovarian; MDA-MB-231 breast; RXF 393 renal.
Common to all, as to assay: NCI tumour cell line growth inhibition, 48 h

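Growth conditions: 96-well plates. Treatment: test compound, 48 hours, 5 concentrations. Analysis: linear interpolation between bracketing concentrations; unreached endpoints set to highest concentration. Abbreviation: GI50, concentration required for 50% inhibition of growth. TGI is the concentration that stops growth completely.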

Regarding `COc1ccc(/C(C)=N/NC(=O)c2ccncc2)c(OC)c1`, the TGI in the test on A549 NSCLC, with LOX IMVI melanoma, in the test with HCC-2998 colon, in the test with CCRF-CEM leukemia, in the test with MCF7 breast and with NCI-H226 lung was over 10 µM throughout. For the same compound, the TGI in the test on TK-10 renal, with OVCAR-4 ovarian and in the test with MDA-MB-231 breast was over 10 µM throughout.

With `CSC1(C)C(=O)Nc2c(OCc3ccccc3)cc([N+](=O)[O-])cc21` (stereo not drawn), the TGI in the test with A549 NSCLC was over 100 µM; with LOX IMVI melanoma, over 100 µM; with RXF 393 renal, over 100 µM; with HCC-2998 colon, over 100 µM; in the test with CCRF-CEM leukemia, over 100 µM; with MCF7 breast, 44.1 µM. Further, the TGI in the test on NCI-H226 lung was 31 µM; with TK-10 renal, over 100 µM; with OVCAR-4 ovarian it was over 100 µM; in the test on MDA-MB-231 breast, over 100 µM.

Take `Cc1ccc(C(=O)Nc2ccc(CP(=O)(O)O)cc2)cc1NC(=O)c1cccc(N)c1`: the TGI in the test with A549 NSCLC, with LOX IMVI melanoma, in the test on RXF 393 renal, in the test on HCC-2998 colon, in the test on CCRF-CEM leukemia and in the test on MCF7 breast was over 100 µM each time. Moreover, the TGI with NCI-H226 lung, with TK-10 renal, with OVCAR-4 ovarian and with MDA-MB-231 breast was over 100 µM in each case.

Turning to `O=C1c2ccccc2C(=O)N1CCSCC(CO)SCCN1C(=O)c2ccccc2C1=O` (stereo not drawn), the TGI in the test with A549 NSCLC, in the test on LOX IMVI melanoma, in the test with RXF 393 renal, in the test on HCC-2998 colon, with CCRF-CEM leukemia and in the test with MCF7 breast was over 100 µM in each case. Besides, the TGI in the test with NCI-H226 lung, in the test with TK-10 renal, in the test on OVCAR-4 ovarian and with MDA-MB-231 breast was over 100 µM each time.

As for `C=CC(O)(CBr)CCC(Br)C(=C)C` (stereo not drawn), the TGI with A549 NSCLC, in the test with LOX IMVI melanoma, in the test on RXF 393 renal, with HCC-2998 colon, in the test on CCRF-CEM leukemia and in the test with MCF7 breast was over 10 µM each time. Moreover, the TGI with NCI-H226 lung, with TK-10 renal, in the test on OVCAR-4 ovarian and with MDA-MB-231 breast was over 10 µM each time.

Consider `O=[N+]([O-])C(/C=C(\Cl)[N+](=O)[O-])=C1Nc2ccccc2N1`, for which the TGI in the test with A549 NSCLC was over 100 µM; in the test with LOX IMVI melanoma, over 100 µM; in the test with RXF 393 renal, 95.9 µM; in the test on HCC-2998 colon, over 100 µM; in the test with CCRF-CEM leukemia, 97.5 µM; in the test on MCF7 breast, over 100 µM. The TGI in the test on NCI-H226 lung was 97.2 µM; in the test with TK-10 renal it was over 100 µM; in the test on OVCAR-4 ovarian, over 100 µM; in the test with MDA-MB-231 breast, over 100 µM.

`COc1ccccc1Cc1ccc(C2C=CC3(CC(=O)C=C3C)C(=O)C2)o1` (stereo not drawn): the TGI in the test with A549 NSCLC was over 100 µM; with LOX IMVI melanoma it was 34.9 µM; in the test on RXF 393 renal, 56.3 µM; in the test on HCC-2998 colon, over 100 µM; with MCF7 breast, 34.4 µM; in the test with NCI-H226 lung it was 61.6 µM. The TGI was over 100 µM with TK-10 renal, over 100 µM with OVCAR-4 ovarian and 50.1 µM in the test with MDA-MB-231 breast.

Take `NS(=O)(=O)c1nnc(NC(=O)C23CC4CC(CC(C4)C2)C3)s1`: the TGI with A549 NSCLC, in the test on LOX IMVI melanoma, with RXF 393 renal, in the test with HCC-2998 colon, in the test on MCF7 breast and in the test with NCI-H226 lung was over 100 µM each time. In addition, the TGI was over 100 µM in the test with TK-10 renal, 3.74 µM with OVCAR-4 ovarian and over 100 µM in the test on MDA-MB-231 breast.

In the case of `COc1ccc(OC)c(NCC(=O)Nn2cnc3ccc(S(=O)(=O)Nc4cc(OC)ccc4OC)cc3c2=O)c1`, the TGI in the test on A549 NSCLC, in the test with LOX IMVI melanoma, in the test with HCC-2998 colon, with CCRF-CEM leukemia, in the test on MCF7 breast and with NCI-H226 lung was over 100 µM each time. For the same compound, the TGI in the test on TK-10 renal, in the test with OVCAR-4 ovarian and in the test with MDA-MB-231 breast was over 100 µM in each case.

As to `CC1CN=C(NS(=O)(=O)c2cc(C(=O)Nc3ccc(Cl)cc3)c(Cl)cc2S)NN1` (stereo not drawn), the TGI in the test on A549 NSCLC was over 100 µM; in the test on LOX IMVI melanoma it was over 100 µM; in the test with HCC-2998 colon, 49.1 µM; in the test on CCRF-CEM leukemia, over 100 µM; with MCF7 breast, over 100 µM; in the test on NCI-H226 lung it was 68.8 µM. The TGI in the test with TK-10 renal, in the test on OVCAR-4 ovarian and with MDA-MB-231 breast was over 100 µM each time.

For the compound `CC(O)C1(CNc2cc(Cl)nc(N)n2)CCCCC1` (stereo not drawn), the TGI in the test with A549 NSCLC, in the test on LOX IMVI melanoma, with RXF 393 renal, in the test on CCRF-CEM leukemia, in the test on MCF7 breast and in the test with NCI-H226 lung was over 100 µM throughout. For the same compound, the TGI in the test on TK-10 renal, with OVCAR-4 ovarian and with MDA-MB-231 breast was over 100 µM in each case.

Regarding `CC(Oc1ccccc1Cl)C(=O)NN1C(=O)CC(=O)N(c2ccccc2)C1=S` (stereo not drawn), the TGI in the test on A549 NSCLC, in the test on LOX IMVI melanoma, in the test on RXF 393 renal, in the test on HCC-2998 colon, with MCF7 breast and in the test with NCI-H226 lung was over 100 µM throughout. Also, the TGI in the test on TK-10 renal, in the test with OVCAR-4 ovarian and with MDA-MB-231 breast was over 100 µM in each case.

Take `S=C1NC2=C(COc3ccccc32)C(c2ccc(Cl)cc2)N1` (stereo not drawn): the TGI worked out at 48.2 µM with A549 NSCLC; 30.3 µM in the test with LOX IMVI melanoma; 37.4 µM in the test with RXF 393 renal; 64.7 µM in the test on CCRF-CEM leukemia; 38.4 µM in the test on MCF7 breast; 36 µM in the test with NCI-H226 lung. Besides, the TGI with MDA-MB-231 breast came to 34 µM.

As to `COc1ccc2c3c(Nc4cccc(/C(C)=N\O)c4)[nH]c4ccccc4c-3c(N=O)c2c1`, the GI50 in the test with A549 NSCLC is 27.6 µM; in the test on LOX IMVI melanoma it was 29.1 µM; in the test on HCC-2998 colon it was 10.6 µM; in the test with CCRF-CEM leukemia it was 13.6 µM; in the test with MCF7 breast, 73.9 µM; with NCI-H226 lung, 54 µM. Besides, the GI50 in the test with TK-10 renal was 80.3 µM; in the test with OVCAR-4 ovarian it was 29 µM; in the test on MDA-MB-231 breast, 18.9 µM. For the same compound, the TGI in the test with A549 NSCLC is over 100 µM; in the test on LOX IMVI melanoma, 67.7 µM; in the test on HCC-2998 colon, 22.4 µM; with CCRF-CEM leukemia, over 100 µM; with MCF7 breast, over 100 µM; with NCI-H226 lung, over 100 µM. The TGI is over 100 µM in the test on TK-10 renal, over 100 µM in the test on OVCAR-4 ovarian and 44.5 µM in the test with MDA-MB-231 breast.

The record behind these values is PubChem BioAssay (NCI).
